According to US20230373952A1, “LACTAM COMPOUNDS AS Kv1.3 POTASSIUM SHAKER CHANNEL BLOCKERS” (D.E. Shaw Research, LLC, priority 2020, published 2023):

Legend:
hERG channel [1] = molecular target: T1, hERG channel (Homo sapiens, UniProt Q12809); experiment: hERG electrophysiology, automated whole-cell patch clamp (Patchliner); conditions: read-out: hERG IC50; CHO-K1 cells stably expressing hERG; whole-cell current inhibition, Hill fit
Method: (§1) This assay is used to evaluate the disclosed compounds' inhibition activities against the hERG channel.
(§2) CHO-K1 cells stably expressing hERG were grown in Ham's F-12 Medium with glutamine containing 10% heat-inactivated FBS, 1% penicillin/streptomycin, hygromycin (100 μg/ml) and G418 (100 μg/ml). Cells were grown in culture flasks at 37° C. in a 5% CO2-humidified incubator.
(§3) All compounds were dissolved in DMSO at 30 mM. Compound stock solutions were freshly diluted with external solution to concentrations of 30 nM, 100 nM, 300 nM, 1 μM, 3 μM, 10 μM, 30 μM and 100 μM. The highest content of DMSO (0.3%) was present in 100 μM.
(§4) The voltage protocol (see Table I) was designed to simulate voltage changes during a cardiac action potential with a 300 ms depolarization to +20 mV (analogous to the plateau phase of the cardiac action potential), a repolarization for 300 ms to −50 mV (inducing a tail current) and a final step to the holding potential of −80 mV. The pulse frequency was 0.3 Hz. Control (compound-free) and compound pulse trains for each compound concentration applied contained 70 pulses.
(§5) Whole-cell current recordings and compound application were enabled by means of an automated patch clamp platform Patchliner (Nanion). EPC 10 patch clamp amplifier (HEKA) along with Patchmaster software (HEKA Elektronik Dr. Schulze GmbH) was used for data acquisition. Data were sampled at 10 kHz without filtering. Increasing compound concentrations were applied consecutively to the same cell without washouts in between.
(§6) AUC and PEAK values were obtained with Patchmaster (HEKA Elektronik Dr. Schulze GmbH). To determine IC50 the last single pulse in the pulse train corresponding to a given compound concentration was used. Obtained AUC and PEAK values in the presence of compound were normalized to control values in the absence of compound.

Kv1.3 potassium channel = molecular target: T2, Kv1.3 potassium channel (Homo sapiens, UniProt P22001); experiment: Kv1.3 potassium channel blocker activity, automated whole-cell patch clamp (Patchliner); type: cell-based; conditions: CHO-K1 cells stably expressing Kv1.3; whole-cell current inhibition, Hill fit; read-out: Kv1.3 IC50
T2 construct: expressed in transfected cells
Method: CHO-K1 cells stably expressing Kv1.3 were grown in DMEM containing 10% heat-inactivated FBS, 1 mM sodium pyruvate, 2 mM L-glutamine and G418 (500 μg/ml).
The currents were evoked by applying 100 ms depolarizing pulses from −90 mV (holding potential) to +40 mV were applied with 0.1 Hz frequency. […] 10-second breaks were used between pulse trains (see Table H below).
Passive leak currents were subtracted online using a P/4 procedure (HEKA Elektronik Dr. Schulze GmbH). […] Total compound incubation time before the next pulse train was not longer than 10 seconds. Peak current inhibition was observed during compound equilibration.

hERG channel [2] = molecular target: T1, hERG channel; experiment: cell-based
Method: as §1, §2, §3, §4, §5, §6

T1 sequence (Q12809 whole entry): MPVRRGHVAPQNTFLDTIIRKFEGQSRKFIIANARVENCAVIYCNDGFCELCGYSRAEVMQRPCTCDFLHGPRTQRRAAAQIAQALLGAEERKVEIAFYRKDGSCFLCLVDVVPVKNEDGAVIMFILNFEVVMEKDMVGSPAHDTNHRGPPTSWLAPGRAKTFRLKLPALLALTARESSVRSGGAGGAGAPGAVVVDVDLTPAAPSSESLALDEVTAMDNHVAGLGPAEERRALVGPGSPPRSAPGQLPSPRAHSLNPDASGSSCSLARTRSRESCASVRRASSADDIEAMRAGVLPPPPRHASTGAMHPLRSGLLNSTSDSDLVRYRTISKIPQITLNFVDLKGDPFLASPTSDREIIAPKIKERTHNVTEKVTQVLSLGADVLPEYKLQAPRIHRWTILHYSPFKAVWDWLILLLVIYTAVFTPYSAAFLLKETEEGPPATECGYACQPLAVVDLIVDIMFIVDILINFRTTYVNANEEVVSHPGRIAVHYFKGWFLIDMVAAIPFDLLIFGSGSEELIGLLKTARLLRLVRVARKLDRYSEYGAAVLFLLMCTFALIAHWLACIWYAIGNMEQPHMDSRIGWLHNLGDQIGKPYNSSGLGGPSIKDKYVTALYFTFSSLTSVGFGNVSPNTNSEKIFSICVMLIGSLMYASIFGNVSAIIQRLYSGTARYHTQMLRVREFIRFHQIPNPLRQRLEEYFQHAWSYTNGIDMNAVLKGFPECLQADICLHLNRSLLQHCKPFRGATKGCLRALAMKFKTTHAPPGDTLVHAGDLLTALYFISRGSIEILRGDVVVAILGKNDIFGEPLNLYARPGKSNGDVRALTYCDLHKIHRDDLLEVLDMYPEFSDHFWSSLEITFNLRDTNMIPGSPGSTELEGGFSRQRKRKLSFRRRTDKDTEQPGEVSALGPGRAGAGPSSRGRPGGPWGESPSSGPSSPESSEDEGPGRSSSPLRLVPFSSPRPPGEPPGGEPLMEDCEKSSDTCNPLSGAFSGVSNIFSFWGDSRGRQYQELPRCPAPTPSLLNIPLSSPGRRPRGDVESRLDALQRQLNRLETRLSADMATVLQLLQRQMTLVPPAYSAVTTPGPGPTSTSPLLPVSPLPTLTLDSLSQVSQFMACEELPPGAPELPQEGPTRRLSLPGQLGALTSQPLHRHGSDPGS
T2 sequence (P22001 whole entry): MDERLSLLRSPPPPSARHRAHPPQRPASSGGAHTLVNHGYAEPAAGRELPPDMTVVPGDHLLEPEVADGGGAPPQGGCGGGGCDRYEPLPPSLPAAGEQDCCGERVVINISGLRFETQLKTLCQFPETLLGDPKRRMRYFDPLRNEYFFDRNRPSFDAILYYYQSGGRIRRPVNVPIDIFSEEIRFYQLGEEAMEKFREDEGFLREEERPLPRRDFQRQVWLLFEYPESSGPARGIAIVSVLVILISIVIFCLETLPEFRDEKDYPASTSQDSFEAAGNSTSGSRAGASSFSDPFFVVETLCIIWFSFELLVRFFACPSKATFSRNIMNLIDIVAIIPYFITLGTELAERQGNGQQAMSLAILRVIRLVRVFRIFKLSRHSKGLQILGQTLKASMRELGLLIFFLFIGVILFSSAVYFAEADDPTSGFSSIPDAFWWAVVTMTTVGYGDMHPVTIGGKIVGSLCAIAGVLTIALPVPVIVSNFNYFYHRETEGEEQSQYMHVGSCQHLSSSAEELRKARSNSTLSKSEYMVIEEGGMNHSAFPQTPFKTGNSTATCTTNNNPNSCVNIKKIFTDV

| SMILES | IC50 (hERG channel [1]) | IC50 (Kv1.3 potassium channel) | IC50 (hERG channel [2]) |
| --- | --- | --- | --- |
| C[C@@H]1[C@H](c2c(O)ccc(Cl)c2Cl)CC(=O)N1C1CNC1 [Compound 82, (4S,5R)-1-(azetidin-3-yl)-4-(2,3-dichloro-6-hydroxyphenyl)-5-methylpyrrolidin-2-one] | > 30 µM | < 0.1 µM |  |
| O=C1C[C@@H](c2c(O)ccc(Cl)c2Cl)CN1[C@@H]1CCNC1 (single isomer, unassigned) [Compound 14, 4-(2,3-dichloro-6-hydroxyphenyl)-[1,3-bipyrrolidin]-2-one] |  | < 1 µM | > 30 µM |
| COCCN1C[C@H](c2c(O)ccc(Cl)c2Cl)CC1=O [Compound 36, (4S)-4-(2,3-dichloro-6-hydroxyphenyl)-1-(2-methoxyethyl)pyrrolidin-2-one] |  | < 0.1 µM | > 30 µM |
| C[C@H]1[C@H](c2c(O)ccc(Cl)c2Cl)NC(=O)N1CCCO (relative stereo) [Compound 101, (4S,5S)-rel-4-(2,3-dichloro-6-hydroxyphenyl)-1-(3-hydroxypropyl)-5-methylimidazolidin-2-one] |  | < 0.1 µM | > 30 µM |
| O=C1C[C@@H](c2c(O)ccc(Cl)c2Cl)CN1C1CNC1 [Compound 19, (4S)-1-(azetidin-3-yl)-4-(2,3-dichloro-6-hydroxyphenyl)pyrrolidin-2-one] |  | < 0.1 µM | > 100 µM |
| Cn1ccc(N2C[C@H](c3c(O)ccc(Cl)c3Cl)CC2=O)cc1=O [Compound 68, (S)-4-(4-(2,3-dichloro-6-hydroxyphenyl)-2-oxopyrrolidin-1-yl)-1-methylpyridin-2(1H)-one] |  | < 1 µM | > 100 µM |
| O=C1C[C@@H](c2c(O)ccc(Cl)c2Cl)CN1C[C@H](O)CO [Compound 30, (4S)-4-(2,3-dichloro-6-hydroxyphenyl)-1-[(2S)-2,3-dihydroxypropyl]pyrrolidin-2-one] |  | < 0.1 µM | > 100 µM |
| O=C1C[C@@H](c2c(O)ccc(Cl)c2Cl)CN1C1COC1 [Compound 24, (S)-4-(2,3-dichloro-6-hydroxyphenyl)-1-(oxetan-3-yl)pyrrolidin-2-one] |  | < 0.1 µM | > 30 µM |
| O=C1N[C@H](c2c(O)ccc(Cl)c2Cl)CCN1[C@@H]1CCNC1 (single isomer, unassigned) [Compound 11, 4-(2,3-dichloro-6-hydroxyphenyl)-1-[pyrrolidin-3-yl]-tetrahydropyrimidin-2(1H)-one] |  | < 1 µM | > 10 µM |
| O=C1C[C@@H](c2c(O)ccc(Cl)c2Cl)CN1C1CN(CCO)C1 [Compound 16, (4S)-4-(2,3-dichloro-6-hydroxyphenyl)-1-[1-(2-hydroxyethyl)azetidin-3-yl]pyrrolidin-2-one] |  | < 0.1 µM | > 10 µM |
| C[C@@H](O)CN1C[C@H](c2c(O)ccc(Cl)c2Cl)CC1=O [Compound 53, (S)-4-(2,3-dichloro-6-hydroxyphenyl)-1-((R)-2-hydroxypropyl)pyrrolidin-2-one] |  | < 0.1 µM | > 30 µM |
| O=C1C[C@@H](c2c(O)ccc(Cl)c2Cl)CN1CCO [Compound 29, (4S)-4-(2,3-dichloro-6-hydroxyphenyl)-1-(2-hydroxyethyl)pyrrolidin-2-one] |  | < 0.1 µM | > 30 µM |
| O=C1N[C@@H](c2c(O)ccc(Cl)c2Cl)CCN1[C@@H]1CCNC1 (single isomer, unassigned) [Compound 9, 4-(2,3-dichloro-6-hydroxyphenyl)-1-[pyrrolidin-3-yl]-tetrahydropyrimidin-2(1H)-one] |  | < 1 µM | > 10 µM |
| NCCCN1C[C@H](c2c(O)ccc(Cl)c2Cl)CC1=O [Compound 43, (4S)-1-(3-aminopropyl)-4-(2,3-dichloro-6-hydroxyphenyl)pyrrolidin-2-one] |  | < 0.01 µM | > 30 µM |
| Nc1ccc(N2C[C@H](c3c(O)ccc(Cl)c3Cl)CC2=O)cn1 [Compound 61, (S)-1-(6-aminopyridin-3-yl)-4-(2,3-dichloro-6-hydroxyphenyl)pyrrolidin-2-one] |  | < 0.1 µM | > 10 µM |
| CC1[C@H](c2c(O)ccc(Cl)c2Cl)CC(=O)N1CCO (stereo in doubt) [Compound 81, (4S,5S)-4-(2,3-dichloro-6-hydroxyphenyl)-1-(2-hydroxyethyl)-5-methylpyrrolidin-2-one] |  | < 0.1 µM | > 30 µM |
| Cn1cc(N2C[C@H](c3c(O)ccc(Cl)c3Cl)NC2=O)cn1 [Compound 100, (4S)-4-(2,3-dichloro-6-hydroxyphenyl)-1-(1-methylpyrazol-4-yl)imidazolidin-2-one] |  | < 0.1 µM | > 30 µM |
| O=C1O[C@H](c2c(O)ccc(Cl)c2Cl)CN1CCO (single isomer, unassigned; isomer 1) [Compound 93, 5-(2,3-dichloro-6-hydroxyphenyl)-3-(2-hydroxyethyl)oxazolidin-2-one isomer 1] |  | < 1 µM | > 100 µM |
| O=C1CC[C@@H](c2c(O)ccc(Cl)c2Cl)CN1[C@@H]1CCNC1 (single isomer, unassigned) [Compound 5, 5-(2,3-dichloro-6-hydroxyphenyl)-1-[pyrrolidin-3-yl]piperidin-2-one] |  | < 0.1 µM | > 30 µM |
| NCC(O)CN1C[C@H](c2c(O)ccc(Cl)c2Cl)CC1=O (single isomer, unassigned; isomer 2) [Compound 52] |  | < 0.1 µM | > 100 µM |
| CN(C)C(=O)CCN1C[C@H](c2c(O)ccc(Cl)c2Cl)CC1=O [Compound 41, (S)-3-(4-(2,3-dichloro-6-hydroxyphenyl)-2-oxopyrrolidin-1-yl)-N,N-dimethylpropanamide] |  | < 0.1 µM | > 100 µM |
| CC1[C@H](c2c(O)ccc(Cl)c2Cl)CC(=O)N1C[C@H](O)CO (stereo in doubt) [Compound 79, (4S,5S)-4-(2,3-dichloro-6-hydroxyphenyl)-1-[(2S)-2,3-dihydroxypropyl]-5-methylpyrrolidin-2-one] |  | < 0.1 µM | > 30 µM |
| O=C1C[C@H](c2c(O)ccc(Cl)c2Cl)CN1[C@@H]1CCNC1 (single isomer, unassigned) [Compound 13, 4-(2,3-dichloro-6-hydroxyphenyl)-[1,3-bipyrrolidin]-2-one] |  | < 0.1 µM | > 10 µM |
| O=C1C[C@@H](c2c(O)ccc(Cl)c2Cl)CN1CCC(F)(F)F [Compound 37, (4S)-4-(2,3-dichloro-6-hydroxyphenyl)-1-(3,3,3-trifluoropropyl)pyrrolidin-2-one] |  | < 1 µM | > 100 µM |
| O=C1C[C@@H](c2c(O)ccc(Cl)c2Cl)CN1[C@H]1C[C@@](O)(CO)C1 (single isomer, unassigned; isomer 3) [Compound 70] |  | < 0.1 µM | > 100 µM |
| O=C1C[C@@H](c2c(O)ccc(Cl)c2Cl)CN1[C@H]1C[C@@H](CO)C1 (single isomer, unassigned; isomer 2) [Compound 26] |  | < 0.1 µM | > 30 µM |
| O=C1C[C@@H](c2c(O)ccc(Cl)c2Cl)CN1c1cn[nH]c1 [Compound 58, (S)-4-(2,3-dichloro-6-hydroxyphenyl)-1-(1H-pyrazol-4-yl)pyrrolidin-2-one] |  | < 0.1 µM | > 30 µM |
| O=C1C[C@@H](c2c(O)ccc(Cl)c2Cl)CN1C[C@H]1C[C@H](O)C1 (single isomer, unassigned; isomer 1) [Compound 31] |  | < 0.1 µM | > 30 µM |
